Measured values as given in patent US20110251238A1, “PPAR AGONIST COMPOSITIONS AND METHODS OF USE” (BIOPHARMED, priority 2008, published 2011).
In brackets after ≈: the same amount, converted by molar mass.

How the values were obtained:
[1] = tested on: caspases 3/7; test: Caspases 3/7 activation in HL60 cells (DEVD reagent); format: cell-based, human; settings: 48 hours
Excerpt: 7223, using standard commercially available diagnostic kits (Calbiochem, USA). Assay reagents used were DEVD for caspases 3/7, […] for caspases 8, and LEHD for caspases 9. Moreover, colchicine was used as reference compound that induces this activity of caspases.

[2] = tested on: A549 (human lung adenocarcinoma epithelial); test: Growth inhibition, MTT colorimetric assay, A549; format: cell-based; settings: Homo sapiens, A549, 72 h; carcinoma; 3 days with drug; means of six values; unit inferred; read-out: IC50 A549
Method in brief: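 Human tumour cell lines were exposed to compounds for 3 days. Proliferation inhibition was read by MTT colorimetric assay and expressed as IC50. Values are means of six determinations.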

[3] = tested on: BxPC3 (pancreatic cancer); test: Growth inhibition, MTT colorimetric assay, BxPC3; format: cell-based, human; settings: Homo sapiens, BXPC-3, 72 h; carcinoma; 3 days with drug; means of six values; unit inferred; read-out: IC50 BxPC3
Method in brief: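 Cells were cultured at 37° C with 5% CO2 in the presence of drug for 3 days. Proliferation was read by MTT absorbance at 570 nm. IC50 values are means of six distinct values.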

[4] = tested on: KaKa; test: Growth inhibition, MTT colorimetric assay, KaKa; format: cell-based; settings: 72 h; 3 days with drug; means of six values; unit inferred; read-out: IC50 KaKa
Method in brief: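 Growth inhibition: cells cultured with drug 3 days, then MTT colorimetric readout. Cytotoxic activity given as IC50.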

[5] = tested on: HT-22, an immortalized mouse hippocampal cell line; test: Neuroprotection of HT-22 cells against toxic insults (calcein viability assay); format: cell-based
Method: It is known (P. Aoun, 2003 Eur. J. Pharm. 472:65-71) that Peroxisome proliferator-activated receptors (PPARs) are involved in regulating many metabolic and inflammatory processes. The present invention explores the role of PPAR ligands in protecting neuronal cultures from toxic insults. For that purpose, the new PPAR agonists described in Example 1 were screened for their potential role as neuroprotective compounds. Experiments were performed using HT-22, an immortalized mouse hippocampal cell line, and SK-N-SH, a human neuroblastoma cell line. HT-22 was selected because it expresses PPARγ receptors. Cell viability against glutamate, hydrogen peroxide (H2O2), and serum deprivation insults was determined using a calcein assay. […] Additionally, compounds were protective even when administered simultaneously with glutamate, or for up to 8 h postglutamate insult.
HT-22, an immortalized mouse hippocampal cell line, and SK-N-SH, a human neuroblastoma cell line, were used. HT-22 cells were obtained from David Schubert (Salk Institute, San Diego, Calif.). The HT-22 line was originally selected from HT-4 cells based on glutamate sensitivity. SK-N-SH cells were obtained from ATCC (Manassas, Va.). HT-22 and SK-N-SH cells were grown to confluency in Dulbecco's modified essential medium (DMEM) and RPMI-1640 media, respectively, and supplemented with 10% charcoal/dextran-treated fetal bovine serum (FBS) and […] gentamicin at 37° C. under 95% air/5% CO2. HT-22 cells were plated at a density of 50,000 cells/ml (5000 cells/well), and SK-N-SH cells were plated at a density of 120,000-150,000 cells/ml (12,000-15,000 cells/well) in 96-well plates. In most studies, wells were pretreated with PPAR ligands over a wide dose range at various times prior to being subjected to either glutamate, hydrogen peroxide, or serum deprivation insults. In some studies, the insults were applied prior to the addition of the PPAR ligand.
The following analogues were tested on the HT22 cell line for their neuroprotective effect against glutamate insult and for their anti-inflammatory activity on relevant, models including HT22 cell line.

[6] = tested on: bloodstream forms of T. brucei and T. congolense; test: Trypanocidal activity in vitro, Alamar Blue assay; format: cell-based, Trypanosoma brucei and T. congolense; settings: 48 h total incubation
Method in brief: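 Bloodstream-form trypanosomes exposed to compounds in H2O for 24 h, then Alamar Blue added for a further 24 h (48 h total). Absorbance read at 550 nm with 630 nm reference; duplicate wells, three repeats. HL-60 cytotoxicity run alongside: 43 h plus 5 h dye.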

Oc1ccc(CN(Cc2ccc(C(F)(F)F)cc2)Cc2ccc(O)c3ncccc23)c2cccnc12 [BPM18,708, 5,5′-(4-(trifluoromethyl)benzylazanediyl)bis(methylene)diquinolin-8-ol]
activation of caspases 3/7 ([1]; 0.01 μM): neither BPM18,708 nor BPM19,107 has an effect
activation of caspases 3/7 ([1]; 0.1 μM): strong effect
activation of caspases 3/7 ([1]; 1 μM): strong effect
IC50 [2]: 8 nM
IC50 [3]: 4300 nM
IC50 [4]: 1580 nM
neuroprotection from H2O2 insult [5]: dose-dependent neuroprotection
neuroprotection from glutamate insult [5]: dose-dependent neuroprotection
GI50 ([6]; 50% growth inhibition, read-out: GI50): 310 ± 10 nM
MIC ([6]; lowest concentration at which all cells were killed, read-out: MIC): 1 µM (≈ 0.489 µg/mL)
